Patent publication US9708312B2, “Dihydropyrimidinoisoquinolinones and pharmaceutical compositions thereof for the treatment of inflammatory disorders (GPR84 antagonists)” (GALAPAGOS NV, priority 2012, dated 2017)

Each molecule was assayed against T1, GPR84 (Homo sapiens, UniProt Q9NQS5) (assay: GPR84 [35S]GTPγS binding assay, HEPES buffer). Details: 3,3′ di indolylmethane at EC80, membranes from stable cell line over expressing GPR84.
T1 construct: expressed in transfected cells
Type: biochemical
Protocol: 1.1. Cell Based Assay: GTp-γ S Binding Assay.
The following assay can be used for determination of GPR84 activation.
The assay is performed in a 96 well plate where the following reagents are added. […] In a last step, 30 μL of a mixture consisting of membranes-GTPγS-SpA beads is added [mixture consists of 20 μg/well membranes derived from stable cell line over expressing GPR84 (membranes are pre-incubated with 0.1 μM GDP for 15 min at 4° C.), 0.1 nM [^35S]GTPγS (Perkin Elmer, NEG030) and 0.5 mg/well PVT-WGA SpA beads (Perkin Elmer, RPNQ0001)]. All components are diluted in assay buffer containing 20 mM HEPES pH 7.4; 5 mM MgCl2; 250 mM NaCl; 0.05% BSA; 75 ug/mL saponin Reactions are incubated for 90 min at room temperature followed by centrifugation at 2000 rpm during 15 min. Plates are read on a Topcount reader (Perkin Elmer) immediately after centrifugation (readout time, 1 min/well).

T1 sequence (Q9NQS5 whole entry): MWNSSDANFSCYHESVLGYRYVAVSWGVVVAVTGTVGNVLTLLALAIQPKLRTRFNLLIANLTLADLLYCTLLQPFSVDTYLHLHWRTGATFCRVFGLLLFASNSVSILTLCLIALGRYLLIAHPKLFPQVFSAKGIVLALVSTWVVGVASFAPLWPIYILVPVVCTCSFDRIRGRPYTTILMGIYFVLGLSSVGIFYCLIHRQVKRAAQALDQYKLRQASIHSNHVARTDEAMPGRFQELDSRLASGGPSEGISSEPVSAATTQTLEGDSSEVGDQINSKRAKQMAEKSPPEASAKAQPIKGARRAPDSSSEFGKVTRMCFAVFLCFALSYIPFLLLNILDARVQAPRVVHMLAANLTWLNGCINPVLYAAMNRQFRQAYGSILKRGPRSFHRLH

IC50 [nM] | SMILES
100 to 500 | N#Cc1ccc2c(c1)CCn1c-2cc(OCC2COc3ncccc3O2)nc1=O (stereo not shown) [compound 152, 2-(2,3-dihydro-[1,4]dioxino[2,3-b]pyridin-2-ylmethoxy)-4-oxo-6,7-dihydro-4H-pyrimido[6,1-a]isoquinoline-9-carbonitrile]
100 to 500 | O=c1nc(OCC2CCCO2)cc2n1CCc1cc(OCc3nnnn3C3CC3)ccc1-2 (stereo not shown) [compound 58, 9-(1-cyclopropyl-1H-tetrazol-5-ylmethoxy)-2-(tetrahydro-furan-2-ylmethoxy)-6,7-dihydro-pyrimido[6,1-a]isoquinolin-4-one]
0.01 to 100 | Cc1ccc(COc2ccc3c(c2)CCn2c-3cc(OCC3CCCO3)nc2=O)cc1 (stereo not shown) [compound 35, 9-(4-methyl-benzyloxy)-2-(tetrahydro-furan-2-ylmethoxy)-6,7-dihydro-pyrimido[6,1-a]isoquinolin-4-one]
500 to 1000 | COc1ccc2c(c1)CCn1c-2cc(OCC2Cc3ccccc3O2)nc1=O (stereo not shown) [compound 5, 2-(2,3-dihydro-benzofuran-2-ylmethoxy)-9-methoxy-6,7-dihydro-pyrimido[6,1-a]isoquinolin-4-one]
500 to 1000 | CNCC#Cc1ccc2c(c1)CCn1c-2cc(OCC2COc3ncccc3O2)nc1=O (stereo not shown) [compound 171, 2-(2,3-dihydro-[1,4]dioxino[2,3-b]pyridin-2-ylmethoxy)-9-(3-methylamino-prop-1-ynyl)-6,7-dihydro-pyrimido[6,1-a]isoquinolin-4-one]
0.01 to 100 | Cc1ccccc1COc1ccc2c(c1)CCn1c-2cc(OCC2CCCO2)nc1=O (stereo not shown) [compound 39, 9-(2-methyl-benzyloxy)-2-(tetrahydro-furan-2-ylmethoxy)-6,7-dihydro-pyrimido[6,1-a]isoquinolin-4-one]
500 to 1000 | O=c1nc(OCC2CCCO2)cc2n1CCc1cc(OCC3CCCO3)ccc1-2 (stereo not shown) [compound 52, 2,9-bis-(tetrahydro-furan-2-ylmethoxy)-6,7-dihydro-pyrimido[6,1-a]isoquinolin-4-one]
100 to 500 | O=c1nc(OCC2CCCO2)cc2n1CCc1cc(OCC3CC3)ccc1-2 (stereo not shown) [compound 11, 9-cyclopropylmethoxy-2-(tetrahydro-furan-2-ylmethoxy)-6,7-dihydro-pyrimido[6,1-a]isoquinolin-4-one]
500 to 1000 | O=c1nc(OCC2CCCO2)cc2n1CCc1cc(OCc3ncco3)ccc1-2 (stereo not shown) [compound 65, 9-(oxazol-2-ylmethoxy)-2-(tetrahydro-furan-2-ylmethoxy)-6,7-dihydro-pyrimido[6,1-a]isoquinolin-4-one]
100 to 500 | CCN(CC)C(=O)COc1ccc2c(c1)CCn1c-2cc(OCC2COc3ccccc3O2)nc1=O (stereo not shown) [compound 66, 2-[2-(2,3-dihydro-benzo[1,4]dioxin-2-ylmethoxy)-4-oxo-6,7-dihydro-4H-pyrimido[6,1-a]isoquinolin-9-yloxy]-N,N-diethyl-acetamide]
0.01 to 100 | COc1nccc(-c2ccc3c(c2)CCn2c-3cc(OCC3COc4ncccc4O3)nc2=O)c1Cl (stereo not shown) [compound 160, 9-(3-chloro-2-methoxy-pyridin-4-yl)-2-(2,3-dihydro-[1,4]dioxino[2,3-b]pyridin-2-ylmethoxy)-6,7-dihydro-pyrimido[6,1-a]isoquinolin-4-one]
100 to 500 | CCCCNCC#Cc1ccc2c(c1)CCn1c-2cc(OCC2COc3ncccc3O2)nc1=O (stereo not shown) [compound 191, 9-(3-butylamino-prop-1-ynyl)-2-(2,3-dihydro-[1,4]dioxino[2,3-b]pyridin-2-ylmethoxy)-6,7-dihydro-pyrimido[6,1-a]isoquinolin-4-one]
0.01 to 100 | CCOC(=O)c1ccc(COc2ccc3c(c2)CCn2c-3cc(OCC3COc4ccccc4O3)nc2=O)o1 (stereo not shown) [compound 85, 5-[2-(2,3-dihydro-benzo[1,4]dioxin-2-ylmethoxy)-4-oxo-6,7-dihydro-4H-pyrimido[6,1-a]isoquinolin-9-yloxymethyl]-furan-2-carboxylic acid ethyl ester]
0.01 to 100 | CCCn1nnnc1COc1ccc2c(c1)CCn1c-2cc(OCC2COc3ccccc3O2)nc1=O (stereo not shown) [compound 69, 2-(2,3-dihydro-benzo[1,4]dioxin-2-ylmethoxy)-9-(1-propyl-1H-tetrazol-5-ylmethoxy)-6,7-dihydro-pyrimido[6,1-a]isoquinolin-4-one]
100 to 500 | O=c1nc(OCC2COc3ncccc3O2)cc2n1CCc1cc(CN3CCCC3)ccc1-2 (stereo not shown) [compound 197, 2-(2,3-dihydro-[1,4]dioxino[2,3-b]pyridin-2-ylmethoxy)-9-pyrrolidin-1-ylmethyl-6,7-dihydro-pyrimido[6,1-a]isoquinolin-4-one]
0.01 to 100 | O=c1nc(OCC2COc3ncccc3O2)cc2n1CCc1cc(C#CC3CC3)ccc1-2 (stereo not shown) [compound 141, 9-cyclopropylethynyl-2-(2,3-dihydro-[1,4]dioxino[2,3-b]pyridin-2-ylmethoxy)-6,7-dihydro-pyrimido[6,1-a]isoquinolin-4-one]

IC50 [nM] | SMILES
0.01 to 100 | CCC(O)(C#Cc1ccc2c(c1)CCn1c-2cc(OCC2COc3ncccc3O2)nc1=O)CC (stereo not shown) [compound 186, 2-(2,3-dihydro-[1,4]dioxino[2,3-b]pyridin-2-ylmethoxy)-9-(3-ethyl-3-hydroxy-pent-1-ynyl)-6,7-dihydro-pyrimido[6,1-a]isoquinolin-4-one]
0.01 to 100 | CCc1nc(COc2ccc3c(c2)CCn2c-3cc(OCC3COc4ncccc4O3)nc2=O)no1 (stereo not shown) [compound 155, 2-(2,3-dihydro-[1,4]dioxino[2,3-b]pyridin-2-ylmethoxy)-9-(5-ethyl-[1,2,4]oxadiazol-3-ylmethoxy)-6,7-dihydro-pyrimido[6,1-a]isoquinolin-4-one]
100 to 500 | O=c1nc(OCC2COc3ccccc3O2)cc2n1CCc1cc(OCc3ncco3)ccc1-2 (stereo not shown) [compound 73, 2-(2,3-dihydro-benzo[1,4]dioxin-2-ylmethoxy)-9-(oxazol-2-ylmethoxy)-6,7-dihydro-pyrimido[6,1-a]isoquinolin-4-one]
0.01 to 100 | CC(C)(C)OC(=O)COc1ccc2c(c1)CCn1c-2cc(OCC2COc3ccccc3O2)nc1=O (stereo not shown) [compound 29, [2-(2,3-dihydro-benzo[1,4]dioxin-2-ylmethoxy)-4-oxo-6,7-dihydro-4H-pyrimido[6,1-a]isoquinolin-9-yloxy]-acetic acid tert-butyl ester]
0.01 to 100 | COc1ccc(OC)c(-c2ccc3c(c2)CCn2c-3cc(OCC3COc4ncccc4O3)nc2=O)c1 (stereo not shown) [compound 168, 2-(2,3-dihydro-[1,4]dioxino[2,3-b]pyridin-2-ylmethoxy)-9-(2,5-dimethoxy-phenyl)-6,7-dihydro-pyrimido[6,1-a]isoquinolin-4-one]
0.01 to 100 | O=c1nc(OCC2CCCO2)cc2n1CCc1cc(OCCOCc3ccccc3)ccc1-2 (stereo not shown) [compound 51, 9-(2-benzyloxy-ethoxy)-2-(tetrahydro-furan-2-ylmethoxy)-6,7-dihydro-pyrimido[6,1-a]isoquinolin-4-one]
0.01 to 100 | COc1ncc(-c2ccc3c(c2)CCn2c-3cc(OCC3COc4ncccc4O3)nc2=O)cn1 (stereo not shown) [compound 166, 2-(2,3-dihydro-[1,4]dioxino[2,3-b]pyridin-2-ylmethoxy)-9-(2-methoxy-pyrimidin-5-yl)-6,7-dihydro-pyrimido[6,1-a]isoquinolin-4-one]
0.01 to 100 | O=c1nc(OCC2CCCO2)cc2n1CCc1cc(OCc3ccccc3[N+](=O)[O-])ccc1-2 (stereo not shown) [compound 25, 9-(2-nitro-benzyloxy)-2-(tetrahydro-furan-2-ylmethoxy)-6,7-dihydro-pyrimido[6,1-a]isoquinolin-4-one]
0.01 to 100 | O=c1nc(OCC2COc3ccccc3O2)cc2n1CCc1cc(OCCN3CCOCC3)ccc1-2 (stereo not shown) [compound 71, 2-(2,3-dihydro-benzo[1,4]dioxin-2-ylmethoxy)-9-(2-morpholin-4-yl-ethoxy)-6,7-dihydro-pyrimido[6,1-a]isoquinolin-4-one]
0.01 to 100 | CC(C)N(C)C(=O)COc1ccc2c(c1)CCn1c-2cc(OCC2COc3ccccc3O2)nc1=O (stereo not shown) [compound 67, 2-[2-(2,3-Dihydro-benzo[1,4]dioxin-2-ylmethoxy)-4-oxo-6,7-dihydro-4H-pyrimido[6,1-a]isoquinolin-9-yloxy]-N-isopropyl-N-methyl-acetamide]
100 to 500 | CN1CCN(CCCOc2ccc3c(c2)CCn2c-3cc(OCC3COc4ccccc4O3)nc2=O)CC1 (stereo not shown) [compound 84, 2-(2,3-dihydro-benzo[1,4]dioxin-2-ylmethoxy)-9-[3-(4-methyl-piperazin-1-yl)-propoxy]-6,7-dihydro-pyrimido[6,1-a]isoquinolin-4-one]
0.01 to 100 | COc1cncc(-c2ccc3c(c2)CCn2c-3cc(OCC3COc4ncccc4O3)nc2=O)c1 (stereo not shown) [compound 140, 2-(2,3-dihydro-[1,4]dioxino[2,3-b]pyridin-2-ylmethoxy)-9-(5-methoxy-pyridin-3-yl)-6,7-dihydro-pyrimido[6,1-a]isoquinolin-4-one]
0.01 to 100 | COc1ccccc1OCCOc1ccc2c(c1)CCn1c-2cc(OCC2CCCO2)nc1=O (stereo not shown) [compound 40, 9-[2-(2-methoxy-phenoxy)-ethoxy]-2-(tetrahydro-furan-2-ylmethoxy)-6,7-dihydro-pyrimido[6,1-a]isoquinolin-4-one]
100 to 500 | CCN(CC)CC#Cc1ccc2c(c1)CCn1c-2cc(OCC2COc3ncccc3O2)nc1=O (stereo not shown) [compound 177, 9-(3-diethylamino-prop-1-ynyl)-2-(2,3-dihydro-[1,4]dioxino[2,3-b]pyridin-2-ylmethoxy)-6,7-dihydro-pyrimido[6,1-a]isoquinolin-4-one]
0.01 to 100 | CC(C)CC(O)C#Cc1ccc2c(c1)CCn1c-2cc(OCC2COc3ncccc3O2)nc1=O (stereo not shown) [compound 185, 2-(2,3-dihydro-[1,4]dioxino[2,3-b]pyridin-2-ylmethoxy)-9-(3-hydroxy-5-methyl-hex-1-ynyl)-6,7-dihydro-pyrimido[6,1-a]isoquinolin-4-one]
